Source: patent US12295936B2, “Immunomodulating urea azalides” (Zoetis Services LLC, priority 2020, dated 2025)
Read-outs that look alike come from different tables or passages of the source.

Tests used:
Experiment in all cases: LPS-stimulated whole bovine blood assay, MSD cytokine detection
Format in all cases: cell-based
TNF-α = conditions: Bos taurus, read-out: TNF-α (IC50 μM)
IL-1β = conditions: overstimulation of IL-1β, LPS-stimulated bovine whole blood
IL-6 = conditions: Bos taurus, read-out: IL-6 (IC50 μM)
Excerpt: In order to correlate RNA sequencing data to cytokine changes the whole blood assay was utilized. […] The enhancement result represents an overall stimulation of cytokine levels due to cellular stress or potential toxicity with increasing concentrations of the compound, representing a typical bell shape response curve for immunomodulatory activity.

[1] = LPS-stimulated bovine whole blood

For CC[C@H]1OC(=O)[C@H](C)[C@@H](O[C@H]2C[C@@](C)(OC)[C@](O)(Cn3cncn3)[C@H](C)O2)[C@H](C)[C@@H](O[C@@H]2O[C@H](C)C[C@H](N(C)C(=O)N(C)c3ccccc3)[C@H]2O)[C@](C)(O)C[C@@H](C)CN[C@H](C)[C@@H](O)[C@]1(C)O [Example J-27, 1-((2S,3R,4S,6R)-2-(((2R,3S,4R,5R,8R,10R,11R,12S,13S,14R)-13-(((2R,4R,5S,6S)-5-((1H-1,2,4-triazol-1-yl)methyl)-5-hydroxy-4-methoxy-4,6-dimethyltetrahydro-2H-pyran-2-yl)oxy)-2-ethyl-3,4,10-trihydroxy-3,5,8,10,12,14-hexamethyl-15-oxo-1-oxa-6-azacyclopentadecan-11-yl)oxy)-3-hydroxy-6-methyltetrahydro-2H-pyran-4-yl)-1,3-dimethyl-3-phenylurea], the IC50 (TNF-α; [1]) was 48 µM, the “IL-1β OS of LPS” value (IL-1β) was 250 µM and the IC50 (IL-6; [1]) was 124 µM.

In the case of CC[C@H]1OC(=O)[C@H](C)[C@@H](O)[C@H](C)[C@@H](O[C@@H]2O[C@H](C)C[C@H](N(C)C(=O)Nc3ccncc3)[C@H]2O)[C@](C)(O)C[C@@H](C)CN[C@H](C)[C@@H](O)[C@]1(C)O [Example A-5, 1-((2S,3R,4S,6R)-2-(((2R,3S,4R,5R,8R,10R,11R,12S,13S,14R)-2-ethyl-3,4,10,13-tetrahydroxy-3,5,8,10,12,14-hexamethyl-15-oxo-1-oxa-6-azacyclopentadecan-11-yl)oxy)-3-hydroxy-6-methyltetrahydro-2H-pyran-4-yl)-1-methyl-3-(pyridin-4-yl)urea], the IC50 (TNF-α; [1]) is reported as over 250 µM, the “IL-1β OS of LPS” value (IL-1β) is reported as 24 µM and the IC50 (IL-6; [1]) is reported as over 250 µM.

In the case of CCCNC[C@]1(O)[C@H](C)O[C@@H](O[C@H]2[C@H](C)[C@@H](O[C@@H]3O[C@H](C)C[C@H](N(C)C(=O)N(C)c4cnn(C)c4)[C@H]3O)[C@](C)(O)C[C@@H](C)CN[C@H](C)[C@@H](O)[C@](C)(O)[C@@H](CC)OC(=O)[C@@H]2C)C[C@@]1(C)OC [Example H-58, 1-((2S,3R,4S,6R)-2-(((2R,3S,4R,5R,8R,10R,11R,12S,13S,14R)-2-ethyl-3,4,10-trihydroxy-13-(((2R,4R,5S,6S)-5-hydroxy-4-methoxy-4,6-dimethyl-5-((propylamino)methyl)tetrahydro-2H-pyran-2-yl)oxy)-3,5,8,10,12,14-hexamethyl-15-oxo-1-oxa-6-azacyclopentadecan-11-yl)oxy)-3-hydroxy-6-methyltetrahydro-2H-pyran-4-yl)-1,3-dimethyl-3-(1-methyl-1H-pyrazol-4-yl)urea], the IC50 (TNF-α) is reported as over 250 µM, the “IL-1β OS of LPS” value (IL-1β) is reported as over 250 µM and the IC50 (IL-6) is reported as over 250 µM.

For CCCNC[C@]1(O)[C@H](C)O[C@@H](O[C@H]2[C@H](C)[C@@H](O[C@@H]3O[C@H](C)C[C@H](N(C)C(=O)N(C)c4ccccn4)[C@H]3O)[C@](C)(O)C[C@@H](C)CN[C@H](C)[C@@H](O)[C@](C)(O)[C@@H](CC)OC(=O)[C@@H]2C)C[C@@]1(C)OC [Example H-45, 1-((2S,3R,4S,6R)-2-(((2R,3S,4R,5R,8R,10R,11R,12S,13S,14R)-2-ethyl-3,4,10-trihydroxy-13-(((2R,4R,5S,6S)-5-hydroxy-4-methoxy-4,6-dimethyl-5-((propylamino)methyl)tetrahydro-2H-pyran-2-yl)oxy)-3,5,8,10,12,14-hexamethyl-15-oxo-1-oxa-6-azacyclopentadecan-11-yl)oxy)-3-hydroxy-6-methyltetrahydro-2H-pyran-4-yl)-1,3-dimethyl-3-(pyridin-2-yl)urea], the IC50 (TNF-α; [1]) was 109 µM, the “IL-1β OS of LPS” value (IL-1β) was 250 µM and the IC50 (IL-6; [1]) was 130 µM.

With CC[C@H]1OC(=O)[C@H](C)[C@@H](O[C@H]2C[C@@](C)(OC)[C@](O)(CNCCOC)[C@H](C)O2)[C@H](C)[C@@H](O[C@@H]2O[C@H](C)C[C@H](N(C)C(=O)N(C)c3ccccc3)[C@H]2O)[C@](C)(O)C[C@@H](C)CN[C@H](C)[C@@H](O)[C@]1(C)O [Example H-18, 1-((2S,3R,4S,6R)-2-(((2R,3S,4R,5R,8R,10R,11R,12S,13S,14R)-2-ethyl-3,4,10-trihydroxy-13-(((2R,4R,5S,6S)-5-hydroxy-4-methoxy-5-(((2-methoxyethyl)amino)methyl)-4,6-dimethyltetrahydro-2H-pyran-2-yl)oxy)-3,5,8,10,12,14-hexamethyl-15-oxo-1-oxa-6-azacyclopentadecan-11-yl)oxy)-3-hydroxy-6-methyltetrahydro-2H-pyran-4-yl)-1,3-dimethyl-3-phenylurea] the IC50 (TNF-α; [1]) was 24 µM, the “IL-1β OS of LPS” value (IL-1β) was 40 µM and the IC50 (IL-6; [1]) was 165 µM.

For CC[C@H]1OC(=O)[C@H](C)[C@@H](O)[C@H](C)[C@@H](O[C@@H]2O[C@H](C)C[C@H](N(C)C(=O)Nc3ccccc3OC)[C@H]2O)[C@](C)(O)C[C@@H](C)CN[C@H](C)[C@@H](O)[C@]1(C)O [Example A-8, 1-((2S,3R,4S,6R)-2-(((2R,3S,4R,5R,8R,10R,11R,12S,13S,14R)-2-ethyl-3,4,10,13-tetrahydroxy-3,5,8,10,12,14-hexamethyl-15-oxo-1-oxa-6-azacyclopentadecan-11-yl)oxy)-3-hydroxy-6-methyltetrahydro-2H-pyran-4-yl)-3-(2-methoxyphenyl)-1-methylurea], the IC50 (TNF-α; [1]) was over 250 µM, the “IL-1β OS of LPS” value (IL-1β) was 101 µM and the IC50 (IL-6; [1]) was 16 µM.

In the case of CC[C@H]1OC(=O)[C@H](C)[C@@H](O[C@H]2C[C@@](C)(OC)[C@](O)(CNCC3CCN(C)CC3)[C@H](C)O2)[C@H](C)[C@@H](O[C@@H]2O[C@H](C)C[C@H](N(C)C(=O)N(C)c3ccccc3)[C@H]2O)[C@](C)(O)C[C@@H](C)CN[C@H](C)[C@@H](O)[C@]1(C)O [Example H-30, 1-((2S,3R,4S,6R)-2-(((2R,3S,4R,5R,8R,10R,11R,12S,13S,14R)-2-ethyl-3,4,10-trihydroxy-13-(((2R,4R,5S,6S)-5-hydroxy-4-methoxy-4,6-dimethyl-5-((((1-methylpiperidin-4-yl)methyl)amino)methyl)tetrahydro-2H-pyran-2-yl)oxy)-3,5,8,10,12,14-hexamethyl-15-oxo-1-oxa-6-azacyclopentadecan-11-yl)oxy)-3-hydroxy-6-methyltetrahydro-2H-pyran-4-yl)-1,3-dimethyl-3-phenylurea], the IC50 (TNF-α; [1]) is reported as 250 µM, the “IL-1β OS of LPS” value (IL-1β) is reported as 250 µM and the IC50 (IL-6; [1]) is reported as over 250 µM.

For CC[C@H]1OC(=O)[C@H](C)[C@@H](O[C@H]2C[C@@](C)(OC)[C@](O)(CNCCN(C)C)[C@H](C)O2)[C@H](C)[C@@H](O[C@@H]2O[C@H](C)C[C@H](N(C)C(=O)N(C)c3ccccc3)[C@H]2O)[C@](C)(O)C[C@@H](C)CN[C@H](C)[C@@H](O)[C@]1(C)O [Example H-20, 1-((2S,3R,4S,6R)-2-(((2R,3S,4R,5R,8R,10R,11R,12S,13S,14R)-13-(((2R,4R,5S,6S)-5-(((2-(dimethylamino)ethyl)amino)methyl)-5-hydroxy-4-methoxy-4,6-dimethyltetrahydro-2H-pyran-2-yl)oxy)-2-ethyl-3,4,10-trihydroxy-3,5,8,10,12,14-hexamethyl-15-oxo-1-oxa-6-azacyclopentadecan-11-yl)oxy)-3-hydroxy-6-methyltetrahydro-2H-pyran-4-yl)-1,3-dimethyl-3-phenylurea], the IC50 (TNF-α; [1]) was 31 µM, the “IL-1β OS of LPS” value (IL-1β) was 6 µM and the IC50 (IL-6; [1]) was over 500 µM.

In the case of CC[C@H]1OC(=O)[C@H](C)[C@@H](O[C@H]2C[C@@](C)(OC)[C@@](C)(O)[C@H](C)O2)[C@H](C)[C@@H](O[C@@H]2O[C@H](C)C[C@H](N(C)C(=O)N(C)c3ccccc3)[C@H]2O)[C@](C)(O)C[C@@H](C)CN[C@H](C)[C@@H](O)[C@]1(C)O [Example B-1, 1-((2S,3R,4S,6R)-2-(((2R,3S,4R,5R,8R,10R,11R,12S,13S,14R)-2-ethyl-3,4,10-trihydroxy-13-(((2R,4R,5S,6S)-5-hydroxy-4-methoxy-4,5,6-trimethyltetrahydro-2H-pyran-2-yl)oxy)-3,5,8,10,12,14-hexamethyl-15-oxo-1-oxa-6-azacyclopentadecan-11-yl)oxy)-3-hydroxy-6-methyltetrahydro-2H-pyran-4-yl)-1,3-dimethyl-3-phenylurea], the IC50 (TNF-α; [1]) is reported as 25 µM, the “IL-1β OS of LPS” value (IL-1β) is reported as 40 µM and the IC50 (IL-6; [1]) is reported as 31 µM.

For CC[C@H]1OC(=O)[C@H](C)[C@@H](O[C@H]2C[C@@](C)(OC)[C@](O)(CN3CCN(C)CC3)[C@H](C)O2)[C@H](C)[C@@H](O[C@@H]2O[C@H](C)C[C@H](N(C)C(=O)Nc3cccnc3)[C@H]2O)[C@](C)(O)C[C@@H](C)CN[C@H](C)[C@@H](O)[C@]1(C)O [Example J-8, 1-((2S,3R,4S,6R)-2-(((2R,3S,4R,5R,8R,10R,11R,12S,13S,14R)-2-ethyl-3,4,10-trihydroxy-13-(((2R,4R,5S,6S)-5-hydroxy-4-methoxy-4,6-dimethyl-5-((4-methylpiperazin-1-yl)methyl)tetrahydro-2H-pyran-2-yl)oxy)-3,5,8,10,12,14-hexamethyl-15-oxo-1-oxa-6-azacyclopentadecan-11-yl)oxy)-3-hydroxy-6-methyltetrahydro-2H-pyran-4-yl)-1-methyl-3-(pyridin-3-yl)urea], the IC50 (TNF-α; [1]) was over 500 µM, the “IL-1β OS of LPS” value (IL-1β) was over 500 µM and the IC50 (IL-6; [1]) was over 500 µM.

With CC[C@H]1OC(=O)[C@H](C)[C@@H](O[C@H]2C[C@@](C)(OC)[C@](O)(CN)[C@H](C)O2)[C@H](C)[C@@H](O[C@@H]2O[C@H](C)C[C@H](N(C)C(=O)N(C)c3ccccc3)[C@H]2O)[C@](C)(O)C[C@@H](C)CN[C@H](C)[C@@H](O)[C@]1(C)O [Example H-66, 1-((2S,3R,4S,6R)-2-(((2R,3S,4R,5R,8R,10R,11R,12S,13S,14R)-13-(((2R,4R,5S,6S)-5-(aminomethyl)-5-hydroxy-4-methoxy-4,6-dimethyltetrahydro-2H-pyran-2-yl)oxy)-2-ethyl-3,4,10-trihydroxy-3,5,8,10,12,14-hexamethyl-15-oxo-1-oxa-6-azacyclopentadecan-11-yl)oxy)-3-hydroxy-6-methyltetrahydro-2H-pyran-4-yl)-1,3-dimethyl-3-phenylurea] the IC50 (TNF-α; [1]) was 106 µM, the “IL-1β OS of LPS” value (IL-1β) was 250 µM and the IC50 (IL-6; [1]) was over 250 µM.
